From paper PMC6271041, “Synthesis and Biological Evaluation of Novel 2-Arylalkylthio-5-iodine-6-substituted-benzyl-pyrimidine-4(3H)-ones as Potent HIV-1 Non-Nucleoside Reverse Transcriptase Inhibitors” (Molecules, 2014) come the findings set out here.

One series addresses T1, HIV-1 RT (Human immunodeficiency virus type 1 group M subtype B, UniProt P04585).
T1 construct: The biotin-dUTP was incorporated by reverse transcriptase (Sigma, St. Louis, MO, USA); purchased Sigma
Description: Inhibitory activity against HIV-1 RT (biotin-dUTP incorporation, colorimetric). The class given is biochemical. The settings on record: for pIC50: mean of three separate experiments, variation less than 15%. On the procedure:
Oligo(dT) (TaKaRa Co., Otsu, Japan) was immobilized via its 5'-terminal phosphate to Covalink-NH microtiter plates (NUNC Co., Roskilde, Denmark). The biotin-dUTP was incorporated by reverse transcriptase (Sigma, St. Louis, MO, USA). Briefly, a serial concentration of inhibitor was added to the mixture, which contained 50 mmol/L Tris-HCl (pH 8.3), 3 mmol/L MgCl2, 75 mmol/L KCl, 5 mmol/L DTT, 0.13 mg/mL BSA, 10 μg/mL poly (A), 0.75 μM biotin-11-Dutp, 1.5 μM dTTP and HIV-1 RT. After incubation at 37 °C for 1h, washing buffer, which contained 50 mmol/L Tris-HCl (pH 7.5), 0.15 mol/L NaCl, 0.05 mmol/L MgCl2 and 0.02% Tween20, was used to wash the plate. Then each well of the plate was added […] 1% BSA and incubated at room temperature for another 30 min. The plate was washed with the same buffer for 3 times. Before further incubation at 37 °C for 1 h, 50 μL of alkaline phosphatase streptavidin (SA-ALP) solution (100 ng/mL) was added to each well and washed again as above. Finally, 50 μL of p-nitrophenyl phosphate, disodium (PNPP, 1 mg/mL, pH 9.5) was added and incubated at 37 °C for 30 min. 0.5 mol/L NaOH was added to stop the reaction and a colorimetric streptavidin-alkaline phosphatase reporter system was used to detect and quantify the result.

pIC50: −log10 of the molar value.

Broadly, the pIC50 is the IC50 on a negative log10 scale, so that one unit is a factor of ten. Read a high pIC50 as a small IC50. For orientation: melting point means the temperature of the solid-liquid transition. Compound `CC(=O)c1ccc(CSc2nc(Cc3ccccc3)cc(=O)[nH]2)cc1` [7g, 2-(4-Acetylbenzylthio)-6-benzyluracil] gave a melting point of 204 to 205 °C. Further, the pIC50 against HIV-1 RT was 4.26.

Turning to `COC(=O)c1ccc(CSc2nc(Cc3cc(C)cc(C)c3)c(I)c(=O)[nH]2)cc1` [8k, 2-(4-Methoxycarbonylbenzylthio)-5-iodine-6-(3,5-dimethylbenzyl)uracil], the melting point was 208 to 211 °C. Further, at HIV-1 RT, the pIC50 is 5.95.

Turning to `Cc1cc(C)cc(Cc2cc(=O)[nH]c(SCc3ccc([N+](=O)[O-])cc3)n2)c1` [7b, 2-(4-Nitrobenzylthio)-6-(3,5-dimethylbenzyl)uracil], the melting point was in the range of 218 to 220 °C. For the same compound, on HIV-1 RT, the pIC50 is 5.48.

`Cc1cc(C)cc(Cc2nc(SCCCOc3ccccc3)[nH]c(=O)c2I)c1` [8t, 2-(Phenoxypropylthio)-5-iodine-6-(3,5-dimethylbenzyl)uracil] showed a melting point of 165 to 167 °C. This compound also had a pIC50 against HIV-1 RT of 4.89.

For `O=c1cc(Cc2cc(F)cc(F)c2)nc(SCCc2ccc([N+](=O)[O-])cc2)[nH]1` [7o, 2-(4-Nitrophenethylthio)-6-(3,5-difluorobenzyl)uracil], the melting point lay in the range of 220 to 222 °C. This compound also showed a pIC50 against HIV-1 RT of 4.74.

On to `O=c1[nH]c(SCc2ccc([N+](=O)[O-])cc2)nc(Cc2ccccc2)c1I` [8a, 2-(4-Nitrobenzylthio)-5-iodine-6-benzyluracil], for which the melting point was in the range of 207 to 210 °C. The pIC50 against HIV-1 RT is 5.04.

Consider `COC(=O)c1ccc(CSc2nc(Cc3cc(F)cc(F)c3)c(I)c(=O)[nH]2)cc1` [8l, 2-(4-Methoxycarbonylbenzylthio)-5-iodine-6-(3,5-difluorobenzyl)uracil], for which the melting point was in the range of 210 to 213 °C. In addition, at HIV-1 RT, the “fold more active compared to nevirapine (HIV-1 RT IC50)” value was “about 10 fold” and the pIC50 was 6.15.

Compound `CC(=O)c1ccc(CSc2nc(Cc3cc(F)cc(F)c3)cc(=O)[nH]2)cc1` [7i, 2-(4-Acetylbenzylthio)-6-(3,5-difluorobenzyl)uracil] displayed a melting point of 251 to 254 °C. The compound further showed a pIC50 at HIV-1 RT of 4.47.

In turn, `O=c1[nH]c(SCc2ccc([N+](=O)[O-])cc2)nc(Cc2cc(F)cc(F)c2)c1I` [8c, 2-(4-Nitrobenzylthio)-5-iodine-6-(3,5-difluorobenzyl)uracil] registered a melting point of 203 to 206 °C. On HIV-1 RT, the pIC50 was 5.26.

Compound `Cc1cc(C)cc(Cc2cc(=O)[nH]c(SCc3ccc(C#N)cc3)n2)c1` [7e, 2-(4-Cyanobenzylthio)-6-(3,5-dimethylbenzyl)uracil] had a melting point of 193 to 196 °C. The pIC50 at HIV-1 RT was 4.53.

On HIV-1 RT, `CC(C)c1c(Cc2ccccc2)n(COCc2ccccc2)c(=O)[nH]c1=O` [TNK-651, reference compound] gave a pIC50 of 6.85.

`O=c1[nH]c(SCCCOc2ccccc2)nc(Cc2cc(F)cc(F)c2)c1I` [8u, 2-(Phenoxypropylthio)-5-iodine-6-(3,5-difluorobenzyl)uracil]: the melting point lay in the range of 156 to 158 °C. For the same compound, at HIV-1 RT, the pIC50 was 4.74.

In turn, `COC(=O)c1ccc(CSc2nc(Cc3cc(F)cc(F)c3)cc(=O)[nH]2)cc1` [7l, 2-(4-Methoxycarbonylbenzylthio)-6-(3,5-difluorobenzyl)uracil] came in with a melting point of 279 to 280 °C. The compound further had a negative logarithm of the IC50 (pIC50) against HIV-1 RT below 4.00.

Regarding `Cc1cc(C)cc(Cc2cc(=O)[nH]c(SCCCOc3ccccc3)n2)c1` [7t, 2-(Phenoxypropylthio)-6-(3,5-dimethylbenzyl)uracil], the melting point lay within 100 to 102 °C. Besides, the pIC50 at HIV-1 RT was 5.58.

As for `Cc1cc(C)cc(Cc2nc(SCOCc3ccccc3)[nH]c(=O)c2I)c1` [8w, 2-(Benzyloxymethylthio)-5-iodine-6-(3,5-dimethylbenzyl)uracil], the melting point was in the range of 200 to 202 °C. Further, the pIC50 on HIV-1 RT was 5.06.

On to `N#Cc1ccc(CSc2nc(Cc3ccccc3)cc(=O)[nH]2)cc1` [7d, 2-(4-Cyanobenzylthio)-6-benzyluracil], for which the melting point fell in the range of 190 to 193 °C. Further, the pIC50 against HIV-1 RT was below 4.00.

As for `O=c1[nH]c(SCCCOc2ccccc2)nc(Cc2ccccc2)c1I` [8s, 2-(Phenoxypropylthio)-5-iodine-6-benzyluracil], the melting point is 135 to 137 °C. Besides, the pIC50 at HIV-1 RT was 5.23.

As to `COC(=O)c1ccc(CSc2nc(Cc3ccccc3)cc(=O)[nH]2)cc1` [7j, 2-(4-Methoxycarbonylbenzylthio)-6-benzyluracil], the melting point lay in the range of 214 to 217 °C. In addition, the negative logarithm of the IC50 (pIC50) on HIV-1 RT was below 4.00.

Compound `Cc1cc(C)cc(Cc2cc(=O)[nH]c(SCOCc3ccccc3)n2)c1` [7w, 2-(Benzyloxymethylthio)-6-(3,5-dimethylbenzyl)uracil] showed a melting point of 134 to 136 °C. The negative logarithm of the IC50 (pIC50) against HIV-1 RT was 5.74.

On to `O=c1cc(Cc2ccccc2)nc(SCCOc2ccc([N+](=O)[O-])cc2)[nH]1` [7p, 2-(2-(4-Nitrophenoxy)ethylthio)-6-benzyluracil], for which the melting point was in the range of 212 to 213 °C. The compound further gave a pIC50 at HIV-1 RT of 5.34.

The compound `N#Cc1ccc(CSc2nc(Cc3cc(F)cc(F)c3)c(I)c(=O)[nH]2)cc1` [8f, 2-(4-Cyanobenzylthio)-5-iodine-6-(3,5-difluorobenzyl)uracil] showed a melting point of 216 to 219 °C. The pIC50 against HIV-1 RT was 5.35.

As to `O=c1cc(Cc2cc(F)cc(F)c2)nc(SCCCOc2ccccc2)[nH]1` [7u, 2-(Phenoxypropylthio)-6-(3,5-difluorobenzyl)uracil], the melting point was in the range of 100 to 101 °C. Besides, the pIC50 at HIV-1 RT was 4.84.

In the case of `O=c1cc(Cc2cc(F)cc(F)c2)nc(SCc2ccc([N+](=O)[O-])cc2)[nH]1` [7c, 2-(4-Nitrobenzylthio)-6-(3,5-difluorobenzyl)uracil], the pIC50 at HIV-1 RT was below 4.00.

As to `O=c1[nH]c(SCCOc2ccc([N+](=O)[O-])cc2)nc(Cc2ccccc2)c1I` [8p], the melting point fell in the range of 204 to 205 °C. Besides, the pIC50 against HIV-1 RT is 5.20.

As for `COC(=O)c1ccc(CSc2nc(Cc3ccccc3)c(I)c(=O)[nH]2)cc1` [8j, 2-(4-Methoxycarbonylbenzylthio)-5-iodine-6-benzyluracil], the melting point lay in the range of 214 to 216 °C. The pIC50 on HIV-1 RT is 5.44.

In the case of `Cc1cc(C)cc(Cc2nc(SCc3ccc(C#N)cc3)[nH]c(=O)c2I)c1` [8e, 2-(4-Cyanobenzylthio)-5-iodine-6-(3,5-dimethylbenzyl)uracil], the melting point was in the range of 224 to 227 °C. On HIV-1 RT, the pIC50 was 5.39.

`CC(=O)c1ccc(CSc2nc(Cc3cc(C)cc(C)c3)cc(=O)[nH]2)cc1` [7h, 2-(4-Acetylbenzylthio)-6-(3,5-dimethylbenzyl)uracil] yielded a melting point of 195 to 197 °C. At HIV-1 RT, the pIC50 was 4.77.

On to `Cc1cc(C)cc(Cc2nc(SCc3ccc([N+](=O)[O-])cc3)[nH]c(=O)c2I)c1` [8b, 2-(4-Nitrobenzylthio)-5-iodine-6-(3,5-dimethylbenzyl)uracil], for which the melting point fell in the range of 224 to 228 °C. Also, the pIC50 at HIV-1 RT is 5.78.

On to `COC(=O)c1ccc(CSc2nc(Cc3cc(C)cc(C)c3)cc(=O)[nH]2)cc1` [7k, 2-(4-Methoxycarbonylbenzylthio)-6-(3,5-dimethylbenzyl)uracil], for which the melting point is 221 to 224 °C. The pIC50 against HIV-1 RT is 5.12.

For the compound `O=c1[nH]c(SCOCc2ccccc2)nc(Cc2ccccc2)c1I` [8v, 2-(Benzyloxymethylthio)-5-iodine-6-benzyluracil], the melting point was in the range of 133 to 135 °C. On HIV-1 RT, this compound had a pIC50 of 4.99.

Regarding `O=c1cc(Cc2cc(F)cc(F)c2)nc(SCCOc2ccc([N+](=O)[O-])cc2)[nH]1` [7r, 2-(2-(4-Nitrophenoxy)ethylthio)-6-(3,5-difluorobenzyl)uracil], the melting point was in the range of 210 to 212 °C. The compound further showed a pIC50 at HIV-1 RT of 5.88.

With `O=c1cc(Cc2ccccc2)nc(SCCCOc2ccccc2)[nH]1` [7s, 2-(Phenoxypropylthio)-6-benzyluracil], the melting point is 89 to 91 °C. Moreover, on HIV-1 RT, the pIC50 is 4.78.

In the case of `O=c1cc(Cc2ccccc2)nc(SCCc2ccc([N+](=O)[O-])cc2)[nH]1` [7m, 2-(4-Nitrophenethylthio)-6-benzyluracil], the melting point fell in the range of 200 to 204 °C. The same compound had a pIC50 on HIV-1 RT of 4.17.

For the compound `N#Cc1ccc(CSc2nc(Cc3cc(F)cc(F)c3)cc(=O)[nH]2)cc1` [7f, 2-(4-Cyanobenzylthio)-6-(3,5-difluorobenzyl)uracil], the melting point lay within 205 to 208 °C. In addition, the pIC50 against HIV-1 RT is 4.80.

`O=c1[nH]c(SCCc2ccc([N+](=O)[O-])cc2)nc(Cc2ccccc2)c1I` [8m, 2-(4-Nitrophenethylthio)-5-iodine-6-benzyluracil] showed a melting point of 209 to 212 °C. The same compound had a pIC50 against HIV-1 RT of 5.06.

In the case of `N#Cc1ccc(CSc2nc(Cc3ccccc3)c(I)c(=O)[nH]2)cc1` [8d, 2-(4-Cyanobenzylthio)-5-iodine-6-benzyluracil], the melting point was 223 to 226 °C. At HIV-1 RT, the pIC50 was 4.97.
